Target: T1, TS isolated from human ovarian CH1 cells (CH1 TS) (Homo sapiens, UniProt P04818)
T1 construct: gene TYMS; native enzyme partially purified from CH1 ovarian tumour cells (parental line), no tag
Assay: 3H release from [[…]-3H]dUMP, non-linear regression
Format: biochemical

T1 sequence (P04818 2-313): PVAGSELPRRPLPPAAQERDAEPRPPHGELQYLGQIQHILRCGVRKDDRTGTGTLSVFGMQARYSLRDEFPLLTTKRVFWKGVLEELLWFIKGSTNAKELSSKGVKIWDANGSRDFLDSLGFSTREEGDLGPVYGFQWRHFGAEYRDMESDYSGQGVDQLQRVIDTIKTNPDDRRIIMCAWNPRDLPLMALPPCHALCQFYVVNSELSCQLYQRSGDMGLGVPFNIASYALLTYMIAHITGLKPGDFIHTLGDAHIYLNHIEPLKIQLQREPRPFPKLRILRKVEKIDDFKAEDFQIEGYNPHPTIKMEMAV

Cc1nc2ccc(CN(C)c3ccc(C(=O)N[C@@H](CCC(=O)N[C@@H](CCC(=O)N[C@@H](CCC(=O)O)C(=O)O)C(=O)O)C(=O)O)s3)cc2c(=O)[nH]1 [ZD1694 triglutamate]
Ki: 1.6 ± 0.1 nM
